Data: patent publication US4915931A, “Tc-99m mononuclide complex compound” (Nihon Medi-Physics Co., Ltd., priority 1988, dated 1990)
Read-outs that look alike come from different tables or passages of the source.

Experiments:
[1] = assay type: in vivo; conditions: mouse
Experimental: The ^99m Tc-PETS solution as obtained in Example 1 was injected into mice through the tail vein in an amount of 0.1 ml/animal. The mice were sacrificed at pre-determined times after the injection. The radioactivities and weights of various organs and blood taken from the sacrificed mice were measured, and the remaining percentages per gram of each organ were determined. The results are shown in Table 1 wherein the relative ratio of each organ to blood was also shown therein.

[2] = 7 minutes from the administration

For “Tc-99m-labeled pentane-2,4-dione-bis(N-methylthiosemicarbazone) complex compound [^99m Tc-PETS]”, the octanol/buffer distribution ratio (n-octanol / 0.06 M phosphate buffer, pH 7.0, 37° C., 15 min) was 191.3, the “lipophilic property compared with ^99m Tc-KTS” value (octanol/buffer, pH 7) was “much higher than that of ^99m Tc-KTS” and the “distribution ratio brain/blood” value [1, 2] was 1.67 ratio (unitless). For the same substance, the “distribution ratio heart/blood” value [1, 2] was 2.16 ratio (unitless), the “distribution ratio pancreas/blood” value [1, 2] was 2.66 ratio (unitless) and the “distribution to brain, heart and pancreas after administration” value ([1]; i.v. tail vein) was “rapidly distributed to brain, heart and pancreas”. For the same substance, the “Body distribution, Blood” value ([1]; i.v. tail vein, 0.5 min) was 4.31 %/g organ, the “Body distribution, Brain” value ([1]; i.v. tail vein, 0.5 min) was 4.68 %/g organ and the “Body distribution, Heart” value ([1]; i.v. tail vein, 0.5 min) was 15.60 %/g organ. For the same substance, the “Body distribution, Intestine” value ([1]; i.v. tail vein, 0.5 min) was 2.60 %/g organ, the “Body distribution, Kidney” value ([1]; i.v. tail vein, 0.5 min) was 15.30 %/g organ and the “Body distribution, Liver” value ([1]; i.v. tail vein, 0.5 min) was 4.83 %/g organ. For the same substance, the “Body distribution, Lung” value ([1]; i.v. tail vein, 0.5 min) was 11.80 %/g organ, the “Body distribution, Pancreas” value ([1]; i.v. tail vein, 0.5 min) was 7.11 %/g organ and the “Body distribution, Spleen” value ([1]; i.v. tail vein, 0.5 min) was 2.20 %/g organ. For the same substance, the “Body distribution, Stomach” value ([1]; i.v. tail vein, 0.5 min) was 1.95 %/g organ, the Brain/blood ratio ([1]; i.v. tail vein, 0.5 min) was 1.09 and the Pancreas/blood ratio ([1]; i.v. tail vein, 0.5 min) was 1.60. For the same substance, the heart/blood ratio ([1]; i.v. tail vein, 0.5 min) was 3.52, the “Body distribution, Blood” value ([1]; i.v. tail vein, 2 min) was 3.21 %/g organ and the “Body distribution, Brain” value ([1]; i.v. tail vein, 2 min) was 4.16 %/g organ. The “Body distribution, Heart” value ([1]; i.v. tail vein, 2 min) was 6.31 %/g organ, the “Body distribution, Intestine” value ([1]; i.v. tail vein, 2 min) was 3.17 %/g organ and the “Body distribution, Kidney” value ([1]; i.v. tail vein, 2 min) was 10.90 %/g organ. For the same substance, the “Body distribution, Liver” value ([1]; i.v. tail vein, 2 min) was 11.70 %/g organ, the “Body distribution, Lung” value ([1]; i.v. tail vein, 2 min) was 8.18 %/g organ and the “Body distribution, Pancreas” value ([1]; i.v. tail vein, 2 min) was 7.32 %/g organ. The “Body distribution, Spleen” value ([1]; i.v. tail vein, 2 min) was 3.24 %/g organ, the “Body distribution, Stomach” value ([1]; i.v. tail vein, 2 min) was 2.66 %/g organ and the Brain/blood ratio ([1]; i.v. tail vein, 2 min) was 1.30. The Pancreas/blood ratio ([1]; i.v. tail vein, 2 min) was 2.29, the heart/blood ratio ([1]; i.v. tail vein, 2 min) was 2.17 and the “Body distribution, Blood” value ([1]; i.v. tail vein, 5 min) was 2.34 %/g organ. The “Body distribution, Brain” value ([1]; i.v. tail vein, 5 min) was 2.93 %/g organ, the “Body distribution, Heart” value ([1]; i.v. tail vein, 5 min) was 4.08 %/g organ and the “Body distribution, Intestine” value ([1]; i.v. tail vein, 5 min) was 3.65 %/g organ. The “Body distribution, Kidney” value ([1]; i.v. tail vein, 5 min) was 6.20 %/g organ, the “Body distribution, Liver” value ([1]; i.v. tail vein, 5 min) was 20.10 %/g organ and the “Body distribution, Lung” value ([1]; i.v. tail vein, 5 min) was 3.95 %/g organ. The “Body distribution, Pancreas” value ([1]; i.v. tail vein, 5 min) was 4.30 %/g organ, the “Body distribution, Spleen” value ([1]; i.v. tail vein, 5 min) was 3.72 %/g organ and the “Body distribution, Stomach” value ([1]; i.v. tail vein, 5 min) was 1.97 %/g organ. For the same substance, the Brain/blood ratio ([1]; i.v. tail vein, 5 min) was 1.37, the Pancreas/blood ratio ([1]; i.v. tail vein, 5 min) was 1.86 and the heart/blood ratio ([1]; i.v. tail vein, 5 min) was 1.88. For the same substance, the “Body distribution, Blood” value ([1]; i.v. tail vein, 7 min) was 1.21 %/g organ, the “Body distribution, Brain” value ([1]; i.v. tail vein, 7 min) was 1.85 %/g organ and the “Body distribution, Heart” value ([1]; i.v. tail vein, 7 min) was 2.41 %/g organ. For the same substance, the “Body distribution, Intestine” value ([1]; i.v. tail vein, 7 min) was 2.96 %/g organ, the “Body distribution, Kidney” value ([1]; i.v. tail vein, 7 min) was 5.03 %/g organ and the “Body distribution, Liver” value ([1]; i.v. tail vein, 7 min) was 19.10 %/g organ. The “Body distribution, Lung” value ([1]; i.v. tail vein, 7 min) was 2.87 %/g organ, the “Body distribution, Pancreas” value ([1]; i.v. tail vein, 7 min) was 3.18 %/g organ and the “Body distribution, Spleen” value ([1]; i.v. tail vein, 7 min) was 3.06 %/g organ. The “Body distribution, Stomach” value ([1]; i.v. tail vein, 7 min) was 1.63 %/g organ, the Brain/blood ratio ([1]; i.v. tail vein, 7 min) was 1.67 and the Pancreas/blood ratio ([1]; i.v. tail vein, 7 min) was 2.66. The heart/blood ratio ([1]; i.v. tail vein, 7 min) was 2.16, the “Body distribution, Blood” value ([1]; i.v. tail vein, 15 min) was 1.46 %/g organ and the “Body distribution, Brain” value ([1]; i.v. tail vein, 15 min) was 0.97 %/g organ. For the same substance, the “Body distribution, Heart” value ([1]; i.v. tail vein, 15 min) was 1.76 %/g organ, the “Body distribution, Intestine” value ([1]; i.v. tail vein, 15 min) was 4.63 %/g organ and the “Body distribution, Kidney” value ([1]; i.v. tail vein, 15 min) was 4.40 %/g organ. For the same substance, the “Body distribution, Liver” value ([1]; i.v. tail vein, 15 min) was 21.90 %/g organ, the “Body distribution, Lung” value ([1]; i.v. tail vein, 15 min) was 2.56 %/g organ and the “Body distribution, Pancreas” value ([1]; i.v. tail vein, 15 min) was 2.19 %/g organ. For the same substance, the “Body distribution, Spleen” value ([1]; i.v. tail vein, 15 min) was 1.98 %/g organ, the “Body distribution, Stomach” value ([1]; i.v. tail vein, 15 min) was 1.50 %/g organ and the Brain/blood ratio ([1]; i.v. tail vein, 15 min) was 0.68. For the same substance, the Pancreas/blood ratio ([1]; i.v. tail vein, 15 min) was 1.52, the heart/blood ratio ([1]; i.v. tail vein, 15 min) was 1.21 and the “Body distribution, Blood” value ([1]; i.v. tail vein, 30 min) was 3.27 %/g organ. For the same substance, the “Body distribution, Brain” value ([1]; i.v. tail vein, 30 min) was 0.63 %/g organ, the “Body distribution, Heart” value ([1]; i.v. tail vein, 30 min) was 2.01 %/g organ and the “Body distribution, Intestine” value ([1]; i.v. tail vein, 30 min) was 7.68 %/g organ. For the same substance, the “Body distribution, Kidney” value ([1]; i.v. tail vein, 30 min) was 5.06 %/g organ, the “Body distribution, Liver” value ([1]; i.v. tail vein, 30 min) was 31.70 %/g organ and the “Body distribution, Lung” value ([1]; i.v. tail vein, 30 min) was 3.20 %/g organ. For the same substance, the “Body distribution, Pancreas” value ([1]; i.v. tail vein, 30 min) was 2.05 %/g organ, the “Body distribution, Spleen” value ([1]; i.v. tail vein, 30 min) was 2.85 %/g organ and the “Body distribution, Stomach” value ([1]; i.v. tail vein, 30 min) was 2.31 %/g organ. It also gave a Brain/blood ratio ([1]; i.v. tail vein, 30 min) of 0.19, a Pancreas/blood ratio ([1]; i.v. tail vein, 30 min) of 0.69 and a heart/blood ratio ([1]; i.v. tail vein, 30 min) of 0.62.
